{"source": "patent US7365050B2", "about": "“Methods for modulating a drug-related effect or behavior” (The Regents of the University of California, priority 2003, dated 2008)", "key": {"[1]": {"tested_on": "Cav2.2 null mice and wild-type mice", "method": "See Example 2. Mice were injected intraperitoneally with saline and placed in the central, access chamber of a three-chambered apparatus. The door to a second chamber (saline-paired chamber), off the central chamber, was then opened to allow mice access to the second chamber, into which the mice entered. The door was then closed and the mice remained in the second chamber for 5 min before being removed and returned to the home cage. On the following day, the procedure was repeated, except that the mice were given an intraperitoneal injection of ethanol (at the doses indicated in FIG. 2) and allowed to enter, by the same procedure as for the saline-paired side, a third chamber (drug-paired chamber), instead of the saline-paired chamber. The ethanol and saline-paired chambers differed in floor texture and wall color. Drug-paired and saline-paired chambers were assigned randomly, i.e., some mice received ethanol in the same type of chamber in which other mice received saline. This process, saline one day and ethanol the next, was then repeated three times further, resulting in a total of four saline/drug-chamber pairings. On the day immediately following the completion of this 8-day training period, the mice were placed into the central chamber and allowed free access to all three chambers for a total of 30 minutes. Time spent in each of the three chambers was analyzed for each genotype by paired two-tailed t-tests with Bonferroni correction for multiple comparisons. […] To control for a baseline preference for a particular chamber type, all mice received a 30-min test in the chambers prior to training.\nMice were trained in a conditioned place preference (CPP) apparatus (Med Associates, St. Albans, Vt.) that consisted of white and black chambers with different floor textures (black side with rod floor vs. white side with grid floor) that were separated by a central gray access compartment. To measure baseline preference for the test chambers, mice were allowed to roam freely in the entire apparatus for 30 min during the first day of the test. […] The ethanol-paired chamber was assigned randomly across subjects. For conditioning, mice were treated with ethanol (1.2, 2.0, or 2.8 grams/kg v/v in 0.9% saline) and immediately placed in one side for 5 min. On the next day, they were injected with an equivalent volume of saline and placed in the other side. This sequence was repeated four times for a total of 4 days ethanol and 4 days saline, with two rest days halfway through training. On the test day immediately following the final training day, mice were allowed free access to all 3 compartments for 30 min. CPP was assessed by comparing the time spent in the drug-paired chamber on the test day with the time spent in the saline-paired chamber and the central chamber on the test day by paired two-tailed t-tests with Bonferroni correction for multiple comparisons. The mice were considered to have developed CPP for ethanol if they spent more time in the ethanol-paired chamber compared with the other two chambers on the test day."}, "[2]": {"tested_on": "Cav2.2 null mice and wild-type littermates", "method": "Both groups of mice were injected intraperitoneally with ethanol (3.6 g/kg in 0.9% w/v saline) and then assessed for loss of the righting reflex (LORR). Loss of the righting reflex was defined as a mouse being unable to right itself 3 times within 30 sec. Upon losing the righting reflex, mice were placed on their backs and the time taken for them to regain the righting reflex was measured. A mouse was defined as having regained the righting reflex when it was able to right itself 3 times within 30 sec. A blood sample was taken from the tail of each mouse when it regained the righting reflex in order to determine blood ethanol concentration. Blood was centrifuged at 10,000 g and serum blood alcohol concentration determined using an Analox AM-1 analyser (Analox Instruments, Luneburg Mass.). We determined the threshold concentration of ethanol required to induce LORR using the “up-and-down” method (Dixon, 1965; Findlay et al., 2002). […] If the first mouse lost the righting reflex, then the next mouse was given a lower ethanol dose. […] The log dose interval was 0.0138, corresponding to approximately a 0.1 g/kg difference between doses. The ED50 value was determined as described (Findlay et al., 2002), with 95% confidence intervals determined by the following equation: 95% CI=dosing increment×square root of (2/n)×1.96, where n=the last n trials (6) and 1.96 reflects the 0.05 α level (Dixon, 1965)."}, "[3]": {"tested_on": "Cav2.2 null mice and wild-type littermates", "conditions": "2 g/kg ethanol i.p., Cav2.2 null vs wild-type", "method": "Mice were trained to remain for 180 s on a rotarod apparatus (Ugo Basile Biological Research, Varese, Italy) rotating at a fixed rate of 20 rpm. The first test session was carried out the following day. During a test session, each mouse was placed on the rotarod and the time taken for the animal to fall off the rod was recorded. Mice were then injected intraperitoneally with ethanol and re-tested every 15 min for 1 h. […] Three further days later, the mice were trained to remain on an accelerating (4-40 rpm) rotarod for 300s."}, "[4]": {"tested_on": "Cav2.2 null mice and wild-type littermates", "method": "The conditioned taste aversion study was carried out according to established protocols ([…] and Boyce, 2002) (Chester et al., 2003). Animals were singly housed and acclimatized to limited water access by allowing them access to water for decreasing periods of time (10, 8, 6 and 4 h per day on subsequent days) followed by 2-h daily access for one week. Following acclimatization, they were placed on the conditioning schedule consisting of 1-h access (13:00 to 14:00h) to the conditioned stimulus (CS, a solution of 1.2% (w/v) saline), followed immediately by a saline (0.9% w/v) injection. […] The following day they were allowed two hours of access to drinking water (13:00 to 15:00). This 2-d procedure constituted a single trial and was repeated 7 times to establish baseline consumption levels of 1.2% NaCl. […] Data were compared by two-way ANOVA with factors for injection and genotype.", "remark": "listed apart in the source"}, "[5]": {"tested_on": "Cav2.2 null mice and wild-type littermates", "conditions": "solutions containing 6% or 10% ethanol"}, "[6]": {"conditions": "4 g/kg ethanol i.p., Cav2.2 null vs wild-type"}, "[7]": {"tested_on": "Cav2.2 null mice and littermates", "conditions": "alcohol vapor 3 days, 16 hours per day; Cav2.2 null vs littermates", "procedure": "Handling-induced convulsions (HIC) were measured at various intervals over the next 48 hours."}, "[8]": {"molecular_target": "N-type calcium channel (Rattus norvegicus, UniProt Q02294)", "sequence (Q02294 whole entry, looked up)": "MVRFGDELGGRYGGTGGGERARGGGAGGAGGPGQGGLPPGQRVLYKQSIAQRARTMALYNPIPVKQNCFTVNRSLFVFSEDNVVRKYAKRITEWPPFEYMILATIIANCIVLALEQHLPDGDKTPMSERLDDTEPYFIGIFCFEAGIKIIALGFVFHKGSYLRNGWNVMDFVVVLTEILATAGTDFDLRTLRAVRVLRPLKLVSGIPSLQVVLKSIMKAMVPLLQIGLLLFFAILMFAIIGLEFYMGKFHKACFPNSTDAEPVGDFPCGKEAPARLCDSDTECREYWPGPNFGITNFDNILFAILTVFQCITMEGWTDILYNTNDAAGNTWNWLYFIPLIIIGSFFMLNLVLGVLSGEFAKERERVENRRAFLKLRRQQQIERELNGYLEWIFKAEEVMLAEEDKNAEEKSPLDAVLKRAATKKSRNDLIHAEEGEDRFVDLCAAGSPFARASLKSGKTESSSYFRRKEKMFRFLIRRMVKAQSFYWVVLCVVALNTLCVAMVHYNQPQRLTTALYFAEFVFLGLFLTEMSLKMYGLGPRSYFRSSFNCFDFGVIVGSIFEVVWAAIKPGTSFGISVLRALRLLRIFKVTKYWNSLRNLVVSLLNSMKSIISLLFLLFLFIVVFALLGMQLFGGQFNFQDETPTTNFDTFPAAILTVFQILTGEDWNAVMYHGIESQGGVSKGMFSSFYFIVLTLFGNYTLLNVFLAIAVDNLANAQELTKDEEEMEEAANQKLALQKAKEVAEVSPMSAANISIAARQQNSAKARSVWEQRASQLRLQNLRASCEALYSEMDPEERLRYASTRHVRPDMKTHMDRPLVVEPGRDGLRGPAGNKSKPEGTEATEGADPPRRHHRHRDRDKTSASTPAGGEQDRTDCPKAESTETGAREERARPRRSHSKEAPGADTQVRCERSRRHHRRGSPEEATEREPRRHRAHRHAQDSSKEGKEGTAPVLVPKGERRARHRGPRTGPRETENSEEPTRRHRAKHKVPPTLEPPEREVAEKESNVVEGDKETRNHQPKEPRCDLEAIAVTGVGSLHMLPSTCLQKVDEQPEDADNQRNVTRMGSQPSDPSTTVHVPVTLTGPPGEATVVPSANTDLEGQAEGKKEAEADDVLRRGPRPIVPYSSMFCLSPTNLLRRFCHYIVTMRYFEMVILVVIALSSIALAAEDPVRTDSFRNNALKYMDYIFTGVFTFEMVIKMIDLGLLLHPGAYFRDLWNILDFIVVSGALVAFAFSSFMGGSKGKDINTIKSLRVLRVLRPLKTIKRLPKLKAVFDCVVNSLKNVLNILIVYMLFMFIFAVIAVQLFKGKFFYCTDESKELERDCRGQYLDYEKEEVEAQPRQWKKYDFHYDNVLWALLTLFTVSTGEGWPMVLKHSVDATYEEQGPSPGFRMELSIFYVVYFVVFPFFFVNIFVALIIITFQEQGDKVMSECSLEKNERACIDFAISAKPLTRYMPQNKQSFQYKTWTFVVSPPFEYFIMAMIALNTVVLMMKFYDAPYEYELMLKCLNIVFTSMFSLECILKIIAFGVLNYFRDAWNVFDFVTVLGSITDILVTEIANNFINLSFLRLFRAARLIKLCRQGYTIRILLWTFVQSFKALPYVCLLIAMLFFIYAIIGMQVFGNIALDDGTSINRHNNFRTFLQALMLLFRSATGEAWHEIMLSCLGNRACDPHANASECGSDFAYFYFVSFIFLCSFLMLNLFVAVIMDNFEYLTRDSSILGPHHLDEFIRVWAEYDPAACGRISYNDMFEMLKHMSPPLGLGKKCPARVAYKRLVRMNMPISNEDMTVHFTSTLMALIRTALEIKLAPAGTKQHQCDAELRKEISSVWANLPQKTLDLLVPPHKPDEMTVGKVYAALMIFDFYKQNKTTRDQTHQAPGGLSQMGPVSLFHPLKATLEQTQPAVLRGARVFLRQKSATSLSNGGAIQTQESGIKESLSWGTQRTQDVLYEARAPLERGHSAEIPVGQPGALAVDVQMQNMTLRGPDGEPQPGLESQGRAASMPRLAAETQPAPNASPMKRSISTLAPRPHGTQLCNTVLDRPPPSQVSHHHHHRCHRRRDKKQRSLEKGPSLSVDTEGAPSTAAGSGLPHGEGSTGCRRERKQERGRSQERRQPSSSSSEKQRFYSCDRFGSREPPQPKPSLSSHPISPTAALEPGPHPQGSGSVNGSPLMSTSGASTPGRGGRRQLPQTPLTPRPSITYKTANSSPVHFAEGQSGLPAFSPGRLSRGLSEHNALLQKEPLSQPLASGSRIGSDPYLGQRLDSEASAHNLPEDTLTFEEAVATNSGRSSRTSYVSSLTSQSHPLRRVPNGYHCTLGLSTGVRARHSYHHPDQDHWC", "conditions": "PC12 cells, 25-200 mM ethanol for 2-8 days; cited from earlier work"}}, "note": "Read-outs that look alike come from different tables or passages of the source."}
{"smiles": "CCO", "note": "[ethanol]", "values": [{"measurement": "conditioned place preference", "setting": "[1]; Cav2.2 null mice, 2 g/kg ethanol", "result": "completely absent"}, {"measurement": "conditioned place preference", "setting": "[1]; both genotypes, 1.2 g/kg and 2.8 g/kg ethanol", "result": "Neither genotype showed place preference or aversion"}, {"measurement": "conditioned place preference", "setting": "[1]; inbred 129/SvJae background, Cav2.2 null", "result": "no conditioned place preference"}, {"measurement": "conditioned place preference", "setting": "[1]; inbred 129/SvJae background, wild-type, ethanol 1.5 g/kg", "result": "significant conditioned place preference"}, {"measurement": "conditioned place preference", "setting": "[1]; wild-type mice, 2 g/kg ethanol", "result": "robust place preference"}, {"measurement": "blood ethanol concentration at regaining righting reflex, Cav2.2 null vs wild-type", "setting": "[2]; 3.6 g/kg ethanol i.p.", "result": "higher blood ethanol concentration"}, {"measurement": "decrease in duration of ethanol-induced LORR, Cav2.2 null vs wild-type", "setting": "[2]; 3.6 g/kg ethanol i.p.", "result": 70, "unit": "%"}, {"measurement": "increase in threshold ethanol dose that induces LORR, Cav2.2 null vs wild-type", "setting": "[2]; 10% v/v ethanol i.p., up-and-down method", "result": 16, "unit": "%"}, {"measurement": "duration of ethanol-induced LORR", "setting": "[2]; inbred 129/SvJae background, Cav2.2 null vs wild-type", "result": "decreased duration"}, {"measurement": "latency to fall, accelerating (4-40 rpm) rotarod", "setting": "[3]", "result": "shorter latency to fall"}, {"measurement": "conditioned taste aversion to 1.2% NaCl", "setting": "[4]; 2 g/kg ethanol injection, both genotypes", "result": "both genotypes rapidly developed conditioned taste aversion"}, {"measurement": "magnitude of conditioned taste aversion", "setting": "[4]; 2 g/kg ethanol, Cav2.2 null vs wild-type", "result": "reduced"}, {"measurement": "alcohol consumption, Cav2.2 null mice less than wild-type littermates", "setting": "[5]", "result": "about 30%"}, {"measurement": "clearance of ethanol from the blood", "setting": "[6]", "result": "no difference between the genotypes"}, {"measurement": "handling-induced convulsions during alcohol withdrawal", "setting": "[7]", "result": "increased handling-induced convulsions"}, {"measurement": "binding sites for 125I-ω-conotoxin GVIA", "setting": "[8]", "result": "reversible time- and concentration-dependent increase"}]}
